Measurements from patent US20200255492A1, “LEPTIN PEPTIDES AND THEIR USE FOR TREATING NEUROLOGICAL DISORDERS” (UNIVERSITY OF DUNDEE, priority 2017, published 2020).

Experiments:
[1] = system: GluA1 surface expression in cultured hippocampal neurons; assay: Surface labelling of AMPA receptor subunit GluA1 (immunocytochemistry); format: cell-based, Sprague Dawley rats; conditions: for GluA1 surface expression, hexamer study: 10 nM, 15 min; for GluA1 surface expression, agent alone (PTEN study): bpV 50 nM, 30 min
[2] = system: differentiated human neural cells (SH-SY5Y); assay: LDH release assay (membrane leakage, cell death); format: cell-based; conditions: for reduction of LDH release compared with Aβ1-42 alone, hexamer study: n=11; for reduction of LDH release in Aβ1-42 treated cells: n=5; for reduction of LDH release compared with CuCl2 alone: 5 μM CuCl2
Method: The human neuroblastoma cell line, SH-SY5Y (ECACC, UK) was maintained in Dulbecco's Modified Eagle Medium supplemented with glucose ([…]) and 10% (v/v) cosmic calf serum (Fisher Scientific, UK) at 37° C. in a humidified atmosphere of 5% CO2, 95% air and allowed to reach 70-80% confluence before seeding. Cells (passage 10-18) were plated at 10 000 cells per well in 96 well tissue culture plates (Nunc, VWR, UK) and at a density of 2×10^5 cells in 35 mm dishes for protein extraction. To induce differentiation, cells were cultured in DMEM supplemented with glucose ([…]), 1% (v/v) cosmic calf serum and 10 μM retinoic acid for 5 days. Thereafter they were incubated in DMEM supplemented with glucose ([…]), serum replacement 2 (2%; Sigma, UK) and 18 μM 5-fluorodeoxyuridine to inhibit proliferation of undifferentiated cells. The 50% of the medium was changed every 2-3 days and pharmacological treatment was carried out 7 days after switching to this medium. Reagents used were (from Sigma UK unless stated) 0.1-10 nM human leptin and leptin (116-130); 0.1-10 nM leptin (22-56; Bachem; Switzerland); 10 nM leptin (116-121) leptin (117-122), leptin (124-129) or leptin (125-130; all Severn Biotech, UK); 5 μM copper chloride; […], 5 μM WP1066 or 50 nM wortmannin. All treatments were added to the culture at the same time and survival assays were carried out after 96 h treatment. Protein samples for signaling ELISA were extracted 3 h after exposure to the relevant reagents and for biomarker expression after 72 hours.
The concentration of lactate dehydrogenase (LDH) in the culture medium or the mitochondrial activity within cells was used to monitor the level of cell death, as previously (Oldreive and Doherty 2010). In certain experiments, a Crystal violet assay was used to assess total cell number. Cells were fixed in neutral buffered formalin and washed 3 times in PBS prior to staining with 0.01% crystal violet acetate for 5 min. Plates were washed 5-10 times in dH2O and cells solubilised in 100 μl dimethyl sulfoxide (DMSO) before reading the absorbance on a Biohit BP100 plate reader. For all assays, data is expressed as percentage relative to control, untreated wells to normalize for differences in plating density between individual experiments.
To determine whether leptin (116-130) has neuroprotective actions, the effects of leptin (116-130) on the viability of differentiated human neural cells (SH-SY5Y) was examined after exposure to either 5 μM CuCl2 or 10 μM Aβ1-42. Cells were treated with the toxin alone or with a range of concentrations (10-0.1 nM) of leptin or leptin (116-130). […] Thus like leptin, treatment with leptin (116-130) reduces neuronal death in response to AD-linked toxins in vitro.

[3] = system: juvenile hippocampal slices; assay: Subthreshold LFS: Aβ1-42-induced LTD; format: cell-based, Sprague Dawley rats; conditions: for synaptic transmission after LFS (magnitude of Aβ1-42-induced LTD): 10 nM plus Aβ1-42; for basal synaptic transmission: 10 nM
Method: (§1) Parasagittal hippocampal slices (300 μm) were prepared from either P13-21 or 12-24-week-old male Sprague Dawley rats as previously (Moult et al. 2010). Brains were rapidly removed and placed in ice-cold artificial CSF (aCSF; bubbled with 95% O2 and 5% CO2) containing the following (in mm): 124 NaCl, 3 KCl, 26 NaHCO3, 1.25 NaH2PO4, 2 CaCl2, 1 MgSO4, and 10 d-glucose. Once prepared, parasagittal slices were allowed to recover at room temperature in oxygenated aCSF for 1 h before use. Slices were transferred to a submerged chamber maintained at room temperature and perfused with artificial cerebrospinal fluid at 2 ml min^−1. Standard extracellular recordings were used to monitor evoked field excitatory postsynaptic potentials (fEPSP) from stratum radiatum. The Schaffer collateral-commissural pathway was stimulated (constant voltage; 0.1 ms) at 0.033 Hz, using a stimulus intensity that evoked a peak amplitude ˜50% of the maximum. Synaptic potentials were low pass filtered at 2 kHz and digitally sampled at 10 kHz. The fEPSP slope was measured and expressed relative to baseline. Synaptic records are the average of 4 consecutive responses and stimulus artefacts are blanked for clarity. Recordings were made using an Axopatch 200B amplifier and analyzed using LTP v2.4 software. In synaptic plasticity studies, the degree of potentiation was calculated 30-35 min after HFS and expressed as a percentage of baseline±standard error of mean (SEM).
It is known that oligomeric Aβ promotes the induction of LTD (Shankar et al. 2008) and that exposure to a low concentration of leptin (10 nM) prevents facilitation of hippocampal LTD by Aβ1-42 (Doherty et al. 2013). Thus we assessed if either of the leptin fragments mirror leptin action. Initially we verified that leptin prevented Aβ1-42-induced LTD. […] Furthermore, leptin (10 nM) reduced the magnitude of Aβ1-42-induced LTD such that LFS depressed synaptic transmission to 101±5.3% of baseline in leptin-treated slices (n=4; P>0.05; FIG. 4B). To establish if the leptin fragments mirrored leptin action the effects of leptin (116-130) or leptin (22-56) were also examined.

[4] = system: adult hippocampal slices (12-24 weeks); assay: Excitatory synaptic transmission (fEPSP) in adult hippocampal slices; format: cell-based, Sprague Dawley rats; conditions: 25 nM; 20 min; adult (12-24 weeks) slices
Method: as §1
We have shown that leptin regulation of excitatory synaptic transmission is age-dependent. Thus in contrast to its effects in juvenile tissue, leptin (25 nM) induces a novel form of LTP in adult hippocampus (Moult and Harvey 2011). In order to verify if the leptin fragments mirror leptin action in adult tissue, the effects of the leptin fragments were examined in hippocampal slices from adult (12-24 weeks) rats.

[5] = system: juvenile hippocampal slices; assay: HFS-induced synaptic plasticity and its inhibition by Aβ1-42; format: cell-based, Sprague Dawley rats; conditions: for synaptic transmission after HFS in slices exposed to Aβ1-42: 25 nM before Aβ1-42
Method: as §1
Several studies indicate that soluble Aβ oligomers impair activity-dependent synaptic plasticity, as exposure to Aβ inhibits hippocampal LTP (Shankar et al. 2008; Li et al. 2009) and enhances LTD (Shankar et al. 2008). Moreover, our recent studies indicate that leptin reverses the detrimental effects of Aβ1-42 on both LTP and LTD (Doherty et al. 2013). Thus we assessed if either of the fragments mirrored the protective actions of leptin on hippocampal synaptic plasticity. Initially we determined that application of leptin prevented the acute effects of Aβ1-42 on LTP. In control slices, synaptic plasticity was induced using high frequency stimulation (HFS; 100 Hz 10 trains of 8 stimuli) which increased synaptic transmission to 127±3.4% of baseline (n=8; P<0.01).

SCSLPQ (listed as Mus musculus) [leptin (116-121)]
GluA1 surface expression, hexamer study [1]: 146±9 % of control
reduction of LDH release compared with Aβ1-42 alone, hexamer study ([2]; 10 nM, 10 μM Aβ1-42): 27.1±3.1%

leptin: the metabolic hormone leptin, whole (full length) leptin molecule; human leptin from Sigma in SH-SY5Y work
GluA1 surface expression, agent alone (PTEN study) [1]: 140±7.2 % of control
reduction of LDH release in Aβ1-42 treated cells ([2]; 0.1 nM, 10 μM Aβ1-42): 31.8±13.2%
reduction of LDH release compared with CuCl2 alone ([2]; 10 nM): 39.5±2.73%
reduction of LDH release in Aβ1-42 treated cells ([2]; 10 nM, 10 μM Aβ1-42): 47.9±7.45%
reduction of LDH release compared with Aβ1-42 alone, hexamer study ([2]; 10 nM, 10 μM Aβ1-42): 25.3±2.5%
synaptic transmission after LFS (magnitude of Aβ1-42-induced LTD) [3]: 101±5.3 % of baseline
synaptic transmission [4]: 188±13 % of baseline
synaptic transmission after HFS in slices exposed to Aβ1-42 [5]: 135±6.3 % of baseline

leptin (22-56): leptin fragment amino acids 22-56 (Bachem), comparison fragment (VPIQKVQDDTKTLIKTIVTRINDISHTQSVSSKQK; UniProt P41159 22-56, looked up, fragment) [reference compound]
basal synaptic transmission [3]: no significant effect on basal synaptic transmission
synaptic transmission after LFS (magnitude of Aβ1-42-induced LTD) [3]: 73±4.0 % of baseline
synaptic transmission [4]: 99±2 % of baseline
synaptic transmission after HFS in slices exposed to Aβ1-42 [5]: 107±3.3 % of baseline

Aβ1-42: amyloid beta 1-42, toxin used in the AD models [reference compound]
increase in LDH release, Aβ1-42 alone ([2]; 10 μM Aβ1-42): 26.7±4.4%
synaptic transmission after subthreshold LFS (LTD), Aβ1-42 alone ([3]; vehicle-treated slices 94±5.6%): 73±3.8 % of baseline
synaptic transmission after HFS, Aβ peptide alone ([5]; control slices 127±3.4%, 40 min): 96±7.5 % of baseline

SCSLPQTSGLQKPES (listed as Mus musculus) [leptin (116-130)]
GluA1 surface expression, hexamer study [1]: increased GluA1 surface labelling
GluA1 surface expression, agent alone (PTEN study) [1]: 167±10 % of control
reduction of LDH release in Aβ1-42 treated cells ([2]; 0.1 nM, 10 μM Aβ1-42): 26.7±17.3%
reduction of LDH release compared with CuCl2 alone ([2]; 10 nM): 45.6±2.92%
reduction of LDH release in Aβ1-42 treated cells ([2]; 10 nM, 10 μM Aβ1-42): 46.6±9%
reduction of LDH release compared with Aβ1-42 alone, hexamer study ([2]; 10 nM, 10 μM Aβ1-42): 24.0 ± 2.2%
increase in LDH release with PI3-kinase inhibitor ([2]; leptin (116-130) and Aβ1-42-treated cells plus wortmannin (50 nM)): 26.9±9.8%
increase in LDH release with STAT3 inhibitor ([2]; leptin (116-130) and Aβ1-42-treated cultures plus WP1066 (5 μM)): 18.3±3.2%
basal synaptic transmission [3]: no significant effect on basal synaptic transmission
synaptic transmission after LFS (magnitude of Aβ1-42-induced LTD) [3]: 94±5.2 % of baseline
synaptic transmission [4]: 140±13 % of baseline
synaptic transmission after HFS in slices exposed to Aβ1-42 [5]: 136±5.5 % of baseline

CSLPQT (listed as Mus musculus) [leptin (117-122)]
GluA1 surface expression, hexamer study [1]: 167±10 % of control
reduction of LDH release compared with Aβ1-42 alone, hexamer study ([2]; 10 nM, 10 μM Aβ1-42): 27.4±3.5%
